In patent US20260250273A1, “CRYSTAL FORM OF COMPOUND, AND PHARMACEUTICAL COMPOSITION AND USE THEREOF” (SHENZHEN KEYE LIFE TECHNOLOGIES CO., LTD, priority 2023, published 2026):

Key:
[1] = Suspension competition experiment between anhydrous crystal form A and anhydrous crystal form C (XRPD); assay type: physicochemical; settings: for Relative stability of crystal forms concluded from suspension competition: room temperature to 50 °C
[2] = Solid-form stability under long-term and accelerated conditions (HPLC purity, XRPD); assay type: physicochemical; settings: 10 d; for Physical and chemical stability: 25 °C/60% RH and 40 °C/75% RH; for Purity (Area %): HPLC, initial purity 99.55 (form A), 99.84 (form C)
[3] = High-temperature stability (HPLC purity, XRPD); assay type: physicochemical; settings: 60 °C, 10 d; for Purity (Area %): HPLC, initial purity 99.55 (form A), 99.84 (form C)
[4] = Hygroscopicity evaluation (DVS test, XRPD after DVS); assay type: physicochemical; settings: for Sample weight change at 80% RH (%): DVS, 25 °C; for Whether crystal form changes before and after test: XRPD before and after DVS test; for Hygroscopicity: weight gain when humidity rises to 80% RH at 25 °C, Chinese Pharmacopoeia (2020 Edition)
[5] = Heating experiment and variable temperature XRPD (VT-XRPD); assay type: physicochemical; settings: heated to 120 °C
[6] = Crystal form conversion of wet samples on air-drying at room temperature (XRPD); assay type: physicochemical; settings: for Crystal form after air-drying: air-dried at room temperature for 1 d; for Stability of the crystal form: crystalline wet solid
[7] = biological target: T1, DHX33 (Homo sapiens, UniProt Q9H6R0); settings: background statement, no data; cited from earlier work
T1 sequence (Q9H6R0 1-707): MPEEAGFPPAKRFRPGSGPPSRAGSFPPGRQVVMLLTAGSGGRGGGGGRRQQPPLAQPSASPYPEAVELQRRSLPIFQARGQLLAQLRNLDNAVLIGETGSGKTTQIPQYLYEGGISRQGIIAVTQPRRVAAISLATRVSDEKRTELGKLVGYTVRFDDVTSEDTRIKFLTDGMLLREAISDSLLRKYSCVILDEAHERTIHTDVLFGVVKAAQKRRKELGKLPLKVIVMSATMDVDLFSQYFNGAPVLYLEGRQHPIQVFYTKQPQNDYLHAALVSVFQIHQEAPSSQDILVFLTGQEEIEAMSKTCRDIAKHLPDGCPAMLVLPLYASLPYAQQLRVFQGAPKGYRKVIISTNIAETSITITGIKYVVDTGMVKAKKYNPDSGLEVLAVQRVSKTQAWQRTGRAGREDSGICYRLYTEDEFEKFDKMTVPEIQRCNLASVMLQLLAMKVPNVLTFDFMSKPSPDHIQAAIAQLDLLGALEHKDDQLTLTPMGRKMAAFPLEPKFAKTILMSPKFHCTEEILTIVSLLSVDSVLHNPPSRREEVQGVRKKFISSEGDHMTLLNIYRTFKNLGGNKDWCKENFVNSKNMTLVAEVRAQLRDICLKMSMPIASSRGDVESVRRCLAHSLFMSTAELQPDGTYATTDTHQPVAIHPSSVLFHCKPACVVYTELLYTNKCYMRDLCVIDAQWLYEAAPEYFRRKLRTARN

[8] = listed as anhydrous crystal form A
[9] = listed as anhydrous crystal form C

In the case of `COc1ccc2nc(NC(=O)c3cc(C)n(-c4sc(C)cc4C#N)c3C)[nH]c2c1`, the “Competition for 1 d (XPRD)” value ([1]; EtOH, 50 °C, saturated solution of Compound (1), resulting crystal form) is reported as “crystal form B” and the “Competition for 2 d (XPRD)” value ([1]; IPAc, RT, saturated solution of Compound (1), resulting crystal form) is reported as “crystal form B”.

With `COc1ccc2nc(NC(=O)c3cc(C)n(-c4sc(C)cc4C#N)c3C)[nH]c2c1` (single isomer, unassigned) [Anhydrous crystal form A, 1-(3-cyano-5-methylthiophen-2-yl)-N-(6-methoxy-1H-benzo[d]imidazol-2-yl)-2,5-dimethyl-1H-pyrrole-3-carboxamide] the “Relative stability of crystal forms concluded from suspension competition” value [1] was “more thermodynamically stable anhydrous form”, the “Physical and chemical stability” value [2] was “good physical and chemical stability” and the “Crystal form Change” value ([2]; 25 °C/60% RH) was “No”. The “Purity (Area %)” value ([2]; 25 °C/60% RH) was 99.67 Area %, the “Crystal form Change” value ([2]; 40 °C/75% RH) was “No” and the “Purity (Area %)” value ([2]; 40 °C/75% RH) was 99.60 Area %. For the same compound, the “Crystal form Change” value [3] was “No”, the “Physical and chemical stability” value [3] was “good physical and chemical stability” and the “Purity (Area %)” value [3] was 99.63 Area %. For the same compound, the “Sample weight change at 80% RH (%)” value [4] was 3.24%, the “Sample weight change at 80% RH (%)” value [4, 8] was 3.24% and the “Whether crystal form changes before and after test” value [4] was “No”. For the same compound, the “Whether crystal form changes before and after test” value [4, 8] was “no changes in crystal form”, the Hygroscopicity [4] was “slight hygroscopicity” and the “Crystal form in VT-XRPD analysis” value ([5]; XRPD in situ, then cooled to room temperature) was “crystal form remained unchanged”. The “Crystal form in heating experiment” value ([5]; maintained for 5 min, cooled to room temperature) was “crystal form remained unchanged”.

For `COc1ccc2nc(NC(=O)c3cc(C)n(-c4sc(C)cc4C#N)c3C)[nH]c2c1` (single isomer, unassigned) [Anhydrous crystal form C, 1-(3-cyano-5-methylthiophen-2-yl)-N-(6-methoxy-1H-benzo[d]imidazol-2-yl)-2,5-dimethyl-1H-pyrrole-3-carboxamide], the “Physical and chemical stability” value [2] was “good physical and chemical stability”, the “Crystal form Change” value ([2]; 25 °C/60% RH) was “No” and the “Purity (Area %)” value ([2]; 25 °C/60% RH) was 99.87 Area %. For the same compound, the “Crystal form Change” value ([2]; 40 °C/75% RH) was “No”, the “Purity (Area %)” value ([2]; 40 °C/75% RH) was 99.90 Area % and the “Crystal form Change” value [3] was “No”. For the same compound, the “Physical and chemical stability” value [3] was “good physical and chemical stability”, the “Purity (Area %)” value [3] was 99.86 Area % and the “Sample weight change at 80% RH (%)” value [4] was 3.71%. For the same compound, the “Sample weight change at 80% RH (%)” value [4, 9] was 3.71%, the “Whether crystal form changes before and after test” value [4] was “No” and the “Whether crystal form changes before and after test” value [4, 9] was “no changes in crystal form”. The Hygroscopicity [4] was “slight hygroscopicity” and the “Crystal form after air-drying” value [6] was “converted into the anhydrous crystal form A”.

For `COc1ccc2nc(NC(=O)c3cc(C)n(-c4sc(C)cc4C#N)c3C)[nH]c2c1` [compound of Formula (1), 1-(3-cyano-5-methylthiophen-2-yl)-N-(6-methoxy-1H-benzo[d]imidazol-2-yl)-2,5-dimethyl-1H-pyrrole-3-carboxamide], the “Inhibiting the RNA helicase activity of DHX33” value [7] is given as “capable of inhibiting the RNA helicase activity of DHX33”.

In the case of `COc1ccc2nc(NC(=O)c3cc(C)n(-c4sc(C)cc4C#N)c3C)[nH]c2c1` [crystal form B, 1-(3-cyano-5-methylthiophen-2-yl)-N-(6-methoxy-1H-benzo[d]imidazol-2-yl)-2,5-dimethyl-1H-pyrrole-3-carboxamide], the “Relative stability of crystal forms concluded from suspension competition” value [1] is reported as “relatively more stable in the case of the wet sample”, the “Crystal form after air-drying” value [6] is reported as “converted into the anhydrous crystal form A” and the “Stability of the crystal form” value [6] is reported as “metastable form”.

In the case of `COc1ccc2nc(NC(=O)c3cc(C)n(-c4sc(C)cc4C#N)c3C)[nH]c2c1` [crystal form D, 1-(3-cyano-5-methylthiophen-2-yl)-N-(6-methoxy-1H-benzo[d]imidazol-2-yl)-2,5-dimethyl-1H-pyrrole-3-carboxamide], the “Crystal form after air-drying” value [6] is reported as “converted into the anhydrous crystal form C” and the “Stability of the crystal form” value [6] is reported as “metastable form”.
